From US20160024062A1, “ISOXAZOLINE DERIVATIVES FOR CONTROLLING INVERTEBRATE PESTS” (NOVARTIS TIERGESUNDHEIT AG, priority 2011, published 2016) come the findings set out here.

Each structure is given as a SMILES string.

For series [1], the system named is Ctenocephalides felis (cat flea). In words: Activity in vivo against Ctenocephalides felis (cat flea) on Mongolian gerbils (spray application). Conditions: live fleas counted 24 h and 48 h after infestation, vs placebo (Abbot's formula). As to the method: On day 0, gerbils are treated with the test compound at a given dose by spray application. On day +1, the animals are infested with a mixed adult population of cat fleas. Evaluation of efficacy is performed 24 h and 48 h infestation by counting the numbers of live fleas recovered from the gerbils. Efficacy is expressed as comparison with a placebo treated group using the Abbot's formula.

Series [2] deals with Rhipicephalus sanquineus nymphs. In words: Activity in vivo against Rhipicephalus sanquineus nymphs on Mongolian gerbils (spray application). The settings on record: engorged nymphs counted seven days after infestation, vs placebo (Abbot's formula). Here is the method:
On day 0, gerbils are treated with the test compound at a given dose by spray application. On day +1 (+2), the animals are infested with nymphs of R. sanguineus. Ticks are left on the animals until full repletion. Seven days after infestation nymphs dropped off fully engorged are collected and counted. Efficacy in killing is expressed as a tick number reduction in comparison with a placebo treated group, using the Abbot's formula.

Series [3] has as its system Ctenocephalides felis (cat flea). The series is described as follows: Activity in vivo against Ctenocephalides felis (cat flea) on Mongolian gerbils (per oral application). The settings on record: dose 3.2 mg/kg, oral gavage, live fleas counted 48 h after infestation, vs placebo (Abbot's formula). Here is the method:
On day 0, gerbils are treated orally by gavage with the test compound formulated at a given dose. Immediately after treatment, they are infested with a mixed adult population of cat fleas. Evaluation of efficacy is performed 48 h infestation by counting the numbers of live fleas recovered from the gerbils. Efficacy is expressed as comparison with a placebo treated group using the Abbot's formula.

As for `Cc1oc(C2=NOC(c3cc(Cl)cc(Cl)c3)(C(F)(F)F)C2)cc1C(=O)NCC(=O)NCC(F)(F)F` (stereo not drawn) [Compound 1.19, 5-(5-(3,5-dichlorophenyl)-5-(trifluoromethyl)-4,5-dihydroisoxazol-3-yl)-2-methyl-N-(2-oxo-2-((2,2,2-trifluoroethyl)amino)ethyl)furan-3-carboxamide], the melting point (as a rule, the temperature of the solid-liquid transition) fell in the range of 172 to 174 °C. For the same compound, the “Efficacy in killing %” value in series [1] (dose 10 mg/kg) is reported as 94%. The “Efficacy in killing %” value in series [2] (dose 10 mg/kg) was found to be 100%. Also, the “Efficacy in killing %” value in series [3] came out at 99%.

As for `Cc1sc(C2=NOC(c3cc(Cl)cc(Cl)c3)(C(F)(F)F)C2)cc1C(=O)NCC(=O)NCC#N` (stereo not drawn) [Compound 1.32, N-(2-((cyanomethyl)amino)-2-oxoethyl)-5-(5-(3,5-dichlorophenyl)-5-(trifluoromethyl)-4,5-dihydroisoxazol-3-yl)-2-methylthiophene-3-carboxamide], the “Efficacy in killing %” value in series [1] (dose 32 mg/kg) came to 96%; in series [2] (dose 100 mg/kg), 85%.
